Experimental data from patent publication US12660819B2, “Herbicidal derivatives” (SYNGENTA CROP PROTECTION AG, priority 2020, dated 2026).

How the values were obtained:
Type in all cases: in vivo
[1] = test system: Amaranthus retoflexus (AMARE); assay: Pre-emergence Test (glasshouse, percentage damage to the plant); conditions: 1000 g/ha unless otherwise stated, Amaranthus retoflexus
[2] = test system: Zea mays (ZEAMX); assay: as above; conditions: 1000 g/ha unless otherwise stated, Zea mays
[3] = test system: Setaria faberi (SETFA); assay: as above; conditions: 1000 g/ha unless otherwise stated, Setaria faberi
[4] = test system: Amaranthus palmeri (AMAPA); assay: as above; conditions: 1000 g/ha unless otherwise stated, Amaranthus palmeri
[5] = test system: Echinochloa crus-galli (ECHCG); assay: as above; conditions: 1000 g/ha unless otherwise stated, Echinochloa crus-galli
[6] = test system: Ipomoea hederacea (IPOHE); assay: as above; conditions: 1000 g/ha unless otherwise stated, Ipomoea hederacea
[7] = test system: Zea mays (ZEAMX); assay: Post-emergence Test (glasshouse, percentage damage to the plant); conditions: post-emergence; 1000 g/ha unless otherwise stated; evaluated after 13 days
Procedure, shortened: (§1)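 Damage was rated 13 days after treatment and expressed on a five-point scale: 5=81-100%, 4=61-80%, 3=41-60%, 2=21-40%, 1=0-20%. Spray was applied at 1000 g/ha unless otherwise stated, from acetone/water (50:50) with 0.5% Tween 20, to sown pots.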

[8] = test system: Amaranthus palmeri (AMAPA); assay: as above; conditions: post-emergence; 1000 g/ha unless otherwise stated; evaluated after 13 days
Procedure, shortened: (§2)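 Rate 1000 g/ha unless stated otherwise. Vehicle: acetone/water 50:50 with 0.5% Tween 20, diluted into aqueous spray. Timing: spray after sowing, read 13 days later. Score: 5=81-100%, 4=61-80%, 3=41-60%, 2=21-40%, 1=0-20% damage.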

[9] = test system: Setaria faberi (SETFA); assay: as above; conditions: post-emergence; 1000 g/ha unless otherwise stated; evaluated after 13 days
Procedure, shortened: as §1

[10] = test system: Amaranthus retoflexus (AMARE); assay: as above; conditions: post-emergence; 1000 g/ha unless otherwise stated; evaluated after 13 days
Procedure, shortened: as §2

[11] = test system: Echinochloa crus-galli (ECHCG); assay: as above; conditions: post-emergence; 1000 g/ha unless otherwise stated; evaluated after 13 days
Procedure, shortened: as §2

[12] = test system: Ipomoea hederacea (IPOHE); assay: as above; conditions: post-emergence; 1000 g/ha unless otherwise stated; evaluated after 13 days
Procedure, shortened: as §1

Row | SMILES | percentage damage to the plant, AMARE (five-point scale) [1] | percentage damage to the plant, ZEAMX (five-point scale) [2] | percentage damage to the plant, SETFA (five-point scale) [3] | percentage damage to the plant, AMAPA (five-point scale) [4] | percentage damage to the plant, ECHCG (five-point scale) [5] | percentage damage to the plant, IPOHE (five-point scale) [6] | ZEAMX, percentage damage caused to the plant (five-point scale) [7] | AMAPA, percentage damage caused to the plant (five-point scale) [8] | SETFA, percentage damage caused to the plant (five-point scale) [9] | AMARE, percentage damage caused to the plant (five-point scale) [10] | ECHCG, percentage damage caused to the plant (five-point scale) [11] | IPOHE, percentage damage caused to the plant (five-point scale) [12]
1 | CCn1c(C)c(-c2cc(OCCOC)c(Cl)cc2F)c(=O)c(C(=O)O)c1-c1ccc(Cl)c(Cl)c1 [Compound 244, 5-[4-chloro-2-fluoro-5-(2-methoxyethoxy)phenyl]-2-(3,4-dichlorophenyl)-1-ethyl-6-methyl-4-oxo-pyridine-3-carboxylic acid] | 5 (5=81-100%) | 0 | 5 (5=81-100%) | 5 (5=81-100%) | 5 (5=81-100%) | 3 (3=41-60%) | 5 (5=81-100%) | 5 (5=81-100%) | 5 (5=81-100%) | 5 (5=81-100%) | 5 (5=81-100%) | 3 (3=41-60%)
2 | CCn1c(C)c(-c2ccc(Cl)cc2Cl)c(=O)c(C(=O)O)c1-c1cnc(Cl)c(Cl)c1 [Compound 209, 5-(2,4-dichlorophenyl)-2-(5,6-dichloro-3-pyridyl)-1-ethyl-6-methyl-4-oxo-pyridine-3-carboxylic acid] | 5 (5=81-100%) | 0 | 4 (4=61-80%) | 5 (5=81-100%) | 4 (4=61-80%) | 1 (1=0-20%) | 4 (4=61-80%) | 5 (5=81-100%) | 5 (5=81-100%) | 5 (5=81-100%) | 5 (5=81-100%) | 4 (4=61-80%)
3 | CCn1c(C)c(-c2ccc(Cl)cc2)c(=O)c(C(=O)O)c1-c1ccc(F)c(Cl)c1 [Compound 258, 2-(3-chloro-4-fluoro-phenyl)-5-(4-chlorophenyl)-1-ethyl-6-methyl-4-oxo-pyridine-3-carboxylic acid] | 5 (5=81-100%) | 1 (1=0-20%) | 5 (5=81-100%) | 5 (5=81-100%) | 5 (5=81-100%) | 1 (1=0-20%) | 5 (5=81-100%) | 5 (5=81-100%) | 5 (5=81-100%) | 4 (4=61-80%) | 5 (5=81-100%) | 3 (3=41-60%)
4 | CCn1c(C)c(-c2ccc3ccccc3n2)c(=O)c(C(=O)O)c1-c1ccc(Cl)c(Cl)c1 [Compound 219, 2-(3,4-dichlorophenyl)-1-ethyl-6-methyl-4-oxo-5-(2-quinolyl)pyridine-3-carboxylic acid] | 0 | 0 | 1 (1=0-20%) | 1 (1=0-20%) | 0 | 0 | 0 | 3 (3=41-60%) | 1 (1=0-20%) | 3 (3=41-60%) | 1 (1=0-20%) | 3 (3=41-60%)
